Results as given in US20260138978A1, “POSITIVE ALLOSTERIC MODULATORS OF THE MUSCARINIC ACETYLCHOLINE RECEPTOR M1” (Vanderbilt University, priority 2022, published 2026).

Experiments:
human mAChRM1 [1] = target: T1, human mAChRM1 (Homo sapiens, UniProt P11229); experiment: mAChR M1 cell-based functional assay (calcium mobilization), agonist activity upon compound addition, Emax relative to acetylcholine maximum; settings: for Agonist Activity Human M1 EC50 / EC50: calcium mobilization upon compound addition; for Emax: relative to the maximum for acetylcholine
T1 construct: host or cells: CHO-K1
T1 sequence (P11229 1-460): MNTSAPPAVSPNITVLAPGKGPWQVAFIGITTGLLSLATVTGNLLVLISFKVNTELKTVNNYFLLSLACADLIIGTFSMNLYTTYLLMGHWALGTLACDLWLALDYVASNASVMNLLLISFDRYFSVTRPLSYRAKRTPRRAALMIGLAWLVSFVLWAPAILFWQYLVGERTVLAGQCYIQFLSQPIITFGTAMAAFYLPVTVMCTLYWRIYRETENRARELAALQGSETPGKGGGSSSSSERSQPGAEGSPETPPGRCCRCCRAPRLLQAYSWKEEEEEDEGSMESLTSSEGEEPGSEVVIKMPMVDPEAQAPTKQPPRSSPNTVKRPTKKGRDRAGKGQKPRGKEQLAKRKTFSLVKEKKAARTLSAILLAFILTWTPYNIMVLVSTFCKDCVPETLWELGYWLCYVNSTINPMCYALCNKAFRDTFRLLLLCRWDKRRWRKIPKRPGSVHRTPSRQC
Outline: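 Emax is given as a percentage of the maximal acetylcholine response, from four-parameter curves of compound-evoked calcium mobilization. Human M1-transfected CHO-K1 cells carried Fluo-4 dye, and compound (11 concentrations, 1:3 steps) was applied at 4 s of a 300 s kinetic fluorescence recording.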

human mAChRM1 [2] = target: T1, human mAChRM1; experiment: mAChR M1 cell-based functional assay (calcium mobilization), positive allosteric modulator activity: increase in the EC20 acetylcholine response; settings: for Emax: PAM mode; for EC50: increase in the EC20 acetylcholine response, read-out: PAM Activity Human M1 EC50
Outline: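 Potentiation is scored as the rise in an EC20 acetylcholine-evoked calcium signal across 11-point (1:3) compound series, fitted with a four-parameter logistic equation to give EC50 and Emax. Read-out is Fluo-4 fluorescence ratio in hM1-transfected CHO-K1 cells, measured kinetically on FDSS.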

Agonist Activity Human M1 EC50 (human mAChRM1 [1])	Emax (human mAChRM1 [2])	EC50 (human mAChRM1 [2])	EC50 (human mAChRM1 [1])	Emax (human mAChRM1 [1])	SMILES
inactive	67%	2.72 µM	–	–	CCC(O)(CC)c1ccc(-c2cc(C)c(CN3Cc4ncccc4C3=O)c(F)c2)c2cn(C)nc12 [Compound 55, 6-(2-fluoro-4-(7-(3-hydroxypentan-3-yl)-2-methyl-2H-indazol-4-yl)-6-methylbenzyl)-6,7-dihydro-5H-pyrrolo[3,4-b]pyridin-5-one]
inactive	50%	5.16 µM	–	–	Cc1c(C(C)(C)O)ccc(-c2cc(F)c(CN3Cc4ncccc4C3=O)c(F)c2)c1F [Compound 56, 6-((2′,3,5-trifluoro-4′-(2-hydroxypropan-2-yl)-3′-methyl-[1,1′-biphenyl]-4-yl)methyl)-6,7-dihydro-5H-pyrrolo[3,4-b]pyridin-5-one]
–	69%	0.181 µM	5.07 µM	11%	Cn1cc2c(-c3ccc(CN4Cc5ncccc5C4=O)c(F)c3)ccc(C(C)(C)O)c2n1 [Compound 57, 6-(2-fluoro-4-(7-(2-hydroxypropan-2-yl)-2-methyl-2H-indazol-4-yl)benzyl)-6,7-dihydro-5H-pyrrolo[3,4-b]pyridin-5-one]
–	71%	0.278 µM	≥ 10 µM	23%	Cc1cc(-c2ccc(C(C)(C)O)c3nn(C)cc23)ccc1CN1Cc2ncccc2C1=O [Compound 58, 6-(4-(7-(2-hydroxypropan-2-yl)-2-methyl-2H-indazol-4-yl)-2-methylbenzyl)-6,7-dihydro-5H-pyrrolo[3,4-b]pyridin-5-one]
–	67%	0.396 µM	≥ 10 µM	16%	Cn1cc2c(-c3ccc(CN4Cc5ncccc5C4=O)cc3)ccc(C(C)(C)O)c2n1 [Compound 59, 6-(4-(7-(2-hydroxypropan-2-yl)-2-methyl-2H-indazol-4-yl)benzyl)-6,7-dihydro-5H-pyrrolo[3,4-b]pyridin-5-one]
inactive	68%	0.163 µM	–	–	COc1cc(-c2ccc(C(C)(C)O)c3nn(C)cc23)cc(F)c1CN1Cc2ncccc2C1=O [Compound 60, 6-(2-fluoro-4-(7-(2-hydroxypropan-2-yl)-2-methyl-2H-indazol-4-yl)-6-methoxybenzyl)-6,7-dihydro-5H-pyrrolo[3,4-b]pyridin-5-one]
–	70%	0.103 µM	4.61 µM	18%	Cn1cc2c(-c3cc(F)c(CN4Cc5ncccc5C4=O)c(Cl)c3)ccc(C(C)(C)O)c2n1 [Compound 61, 6-(2-chloro-6-fluoro-4-(7-(2-hydroxypropan-2-yl)-2-methyl-2H-indazol-4-yl)benzyl)-6,7-dihydro-5H-pyrrolo[3,4-b]pyridin-5-one]
–	73%	0.18 µM	≥ 10 µM	30%	Cn1cc2c(-c3cc(F)c(CN4Cc5ncccc5C4=O)cc3F)ccc(C(C)(C)O)c2n1 [Compound 62, 6-(2,5-difluoro-4-(7-(2-hydroxypropan-2-yl)-2-methyl-2H-indazol-4-yl)benzyl)-6,7-dihydro-5H-pyrrolo[3,4-b]pyridin-5-one]
inactive	64%	0.445 µM	–	–	Cn1cc2c(-c3ccc(CN4Cc5ncccc5C4=O)c(F)c3F)ccc(C(C)(C)O)c2n1 [Compound 63, 6-(2,3-difluoro-4-(7-(2-hydroxypropan-2-yl)-2-methyl-2H-indazol-4-yl)benzyl)-6,7-dihydro-5H-pyrrolo[3,4-b]pyridin-5-one]
–	63%	0.145 µM	6.33 µM	15%	Cn1cc2c(-c3cc(Cl)c(CN4Cc5ncccc5C4=O)c(Cl)c3)ccc(C(C)(C)O)c2n1 [Compound 64, 6-(2,6-dichloro-4-(7-(2-hydroxypropan-2-yl)-2-methyl-2H-indazol-4-yl)benzyl)-6,7-dihydro-5H-pyrrolo[3,4-b]pyridin-5-one]
–	65%	0.135 µM	≥ 10 µM	28%	Cc1cc(-c2ccc(C(C)(C)O)c3nn(C)cc23)cc(Cl)c1CN1Cc2ncccc2C1=O [Compound 65, 6-(2-chloro-4-(7-(2-hydroxypropan-2-yl)-2-methyl-2H-indazol-4-yl)-6-methylbenzyl)-6,7-dihydro-5H-pyrrolo[3,4-b]pyridin-5-one]
inactive	62%	1.91 µM	–	–	Cn1cc2c(-c3cc(F)c(CN4Cc5ncccc5C4=O)c(C4CCCC4)c3)ccc(C(C)(C)O)c2n1 [Compound 66, 6-(2-cyclopentyl-6-fluoro-4-(7-(2-hydroxypropan-2-yl)-2-methyl-2H-indazol-4-yl)benzyl)-6,7-dihydro-5H-pyrrolo[3,4-b]pyridin-5-one]
–	62%	0.147 µM	6.1 µM	32%	Cn1cc2c(-c3cc(Cl)c(CN4Cc5ncccc5C4=O)c(C4CC4)c3)ccc(C(C)(C)O)c2n1 [Compound 67, 6-(2-chloro-6-cyclopropyl-4-(7-(2-hydroxypropan-2-yl)-2-methyl-2H-indazol-4-yl)benzyl)-6,7-dihydro-5H-pyrrolo[3,4-b]pyridin-5-one]
inactive	49%	≥ 10 µM	–	–	Cn1nc(C(C)(C)O)cc1-c1cc(F)c(CN2Cc3ncccc3C2=O)c(C2CC2)c1 [Compound 68, 6-(2-cyclopropyl-6-fluoro-4-(3-(2-hydroxypropan-2-yl)-1-methyl-1H-pyrazol-5-yl)benzyl)-6,7-dihydro-5H-pyrrolo[3,4-b]pyridin-5-one]
inactive	36%	≥ 10 µM	–	–	Cc1cc(-c2cc(C(C)(C)O)nn2C)ccc1CN1Cc2ncccc2C1=O [Compound 69, 6-(4-(3-(2-hydroxypropan-2-yl)-1-methyl-1H-pyrazol-5-yl)-2-methylbenzyl)-6,7-dihydro-5H-pyrrolo[3,4-b]pyridin-5-one]
inactive	78%	2.21 µM	–	–	CCC(O)(CC)c1ccc(-c2ccc(CN3Cc4ncccc4C3=O)c(F)c2)c2cn(C)nc12 [Compound 70, 6-(2-fluoro-4-(7-(3-hydroxypentan-3-yl)-2-methyl-2H-indazol-4-yl)benzyl)-6,7-dihydro-5H-pyrrolo[3,4-b]pyridin-5-one]
inactive	64%	≥ 10 µM	–	–	CC(C)(O)c1ccc(-c2cc(F)c(CN3Cc4ncccc4C3=O)c(F)c2)c2ccccc12 [Compound 71, 6-(2,6-difluoro-4-(4-(2-hydroxypropan-2-yl)naphthalen-1-yl)benzyl)-6,7-dihydro-5H-pyrrolo[3,4-b]pyridin-5-one]
inactive	60%	6.96 µM	–	–	Cc1cc(-c2ccc(C(C)(C)O)c3ccccc23)cc(F)c1CN1Cc2ncccc2C1=O [Compound 72, 6-(2-fluoro-4-(4-(2-hydroxypropan-2-yl)naphthalen-1-yl)-6-methylbenzyl)-6,7-dihydro-5H-pyrrolo[3,4-b]pyridin-5-one]
inactive	58%	≥ 10 µM	–	–	CC(C)(O)c1ccc(-c2ccc(CN3Cc4ncccc4C3=O)c(F)c2)c2ccccc12 [Compound 73, 6-(2-fluoro-4-(4-(2-hydroxypropan-2-yl)naphthalen-1-yl)benzyl)-6,7-dihydro-5H-pyrrolo[3,4-b]pyridin-5-one]
inactive	52%	≥ 10 µM	–	–	Cc1cc(-c2cc(C(C)(C)O)cc3nn[nH]c23)cc(F)c1CN1Cc2ncccc2C1=O [Compound 74, 6-(2-fluoro-4-(5-(2-hydroxypropan-2-yl)-1H-benzo[d][1,2,3]triazol-7-yl)-6-methylbenzyl)-6,7-dihydro-5H-pyrrolo[3,4-b]pyridin-5-one]
inactive	45%	≥ 10 µM	–	–	CC(C)(O)c1cc(-c2ccc(CN3Cc4ncccc4C3=O)c(F)c2)c2[nH]nnc2c1 [Compound 75, 6-(2-fluoro-4-(5-(2-hydroxypropan-2-yl)-1H-benzo[d][1,2,3]triazol-7-yl)benzyl)-6,7-dihydro-5H-pyrrolo[3,4-b]pyridin-5-one]
inactive	80%	0.439 µM	–	–	Cn1cc2c(-c3cc(F)c(CN4Cc5ncccc5C4=O)c(C(F)(F)F)c3)ccc(C(C)(C)O)c2n1 [Compound 76, 6-(2-fluoro-4-(7-(2-hydroxypropan-2-yl)-2-methyl-2H-indazol-4-yl)-6-(trifluoromethyl)benzyl)-6,7-dihydro-5H-pyrrolo[3,4-b]pyridin-5-one]
inactive	73%	3.87 µM	–	–	CN(C)c1cc(-c2ccc(C(C)(C)O)c3nn(C)cc23)cc(F)c1CN1Cc2ncccc2C1=O [Compound 77, 6-(2-(dimethylamino)-6-fluoro-4-(7-(2-hydroxypropan-2-yl)-2-methyl-2H-indazol-4-yl)benzyl)-6,7-dihydro-5H-pyrrolo[3,4-b]pyridin-5-one]
